One test deals with T1, ADRB1 (Homo sapiens, UniProt P08588).
T1 construct: Eurofins
The test can be described thus: Eurofins SAFETYscan 78-target panel, off-target effects, ADRB1. Format: biochemical. Particulars: antagonist / blocker / inhibitor mode. The method, then:
FIG. 9. Table summarizing the Eurofins analysis of potential off-target effects of M1i-124. […] values above 10 μM are generally considered to be acceptable. FIG. 10. Representative hematoxylin and eosin (H&E) staining of organ sections (lung, heart, kidney, liver and adrenal) from control and M1i-124 treated mice described in FIG. 6.
Studies were performed using the services of Touchstone Biosciences and Eurofins Pharma Discovery Services. […] All blood samples (30-50 ul per sample) were taken via tail vein at 5, 15, and 30 minutes, and 1, 2, 4, 6, 8, and 24 hours after dosing. Blood samples are collected in Greiner MiniCollect K2 EDTA tubes, placed on ice, and within 30 minutes, centrifuged at 15,000 g for 5 minutes to obtain plasma samples. All plasma samples are stored at −70° C. until analysis. Plasma samples were prepared for analysis by LC-MS/MS, and key PK parameters, including terminal half-life (t 112), initial plasma concentration (C0), area under the plasma concentration vs. time curve (AUC), volume of distribution at steady-state (Vss), total plasma clearance (CLp), and mean residence time (MRT), were measured.
Assay details are available through Eurofins.

The test system of another test is TMD8 ABC-DLBCL cells. The test can be described thus: Cell proliferation (cell count, trypan blue exclusion), TMD8. The test is classed as cell-based. Particulars: TMD8, single dose of 1 μM, 12 days. From the text:
Cell number was counted using the trypan blue dye exclusion method with Vi-CELL cell viability analyzer (Beckman Coulter) at days 7, 10, and 12 of treatment with compounds. Cell proliferation was specifically evaluated using the CellTrace Violet reagent (ThermoFisher Cat #C34571) which undergoes dilution with each round of cell division. 1.5×10^6 cells were washed twice in PBS and resuspended in 2 mls of PBS.

The subject of test [1] is PMA/iono-induced transcription of interleukin 2 (IL-2). The test can be described thus: IL-2 transcription in Jurkat T cells (quantitative RT-PCR). The test is classed as cell-based. Particulars: compound at 1 μM. On the procedure:
(§1) The DLBCL cell lines, OCI-Ly1, OCI-Ly3, and OCI-Ly7, were provided by Dr. Mark Minden (University Health Network, Toronto, Ontario, Canada). TMD8 cells were provided by Dr. Louis Staudt (NCI, NIH). OCI-Ly1 and OCI-Ly7 cells were cultured in Iscove's Modified Dulbecco's Medium (IMDM) supplemented with 10% FBS. OCI-Ly3 cells were cultured in IMDM supplemented with 20% FBS. TMD8 and Jurkat T cells were cultured in RPMI1640 medium with 10% FBS. HEK293T cells were cultured in DMEM medium with 10% FBS. All media were supplemented with 100 U/ml penicillin streptomycin. Stimulation of Jurkat cells was conducted by adding 5 ng/ml of phorbol 12-myristatel3 acetate (PMA)(Sigma-Aldrich) and 1μM ionomycin (Calbiochem), or by adding 5-10 μL/mL of ImmunoCult Human CD3/CD28 ([…] Technologies).
Total RNA extraction was performed using RNeasy Plus Mini Kit (Qiagen Cat #74136). 1 ng RNA was transcribed into cDNA using High-Capacity cDNA Reverse Transcription Kit (Applied Biosystems Cat #4368814) according to manufacturer's instructions. RT-PCR reactions were performed using TaqMan gene expression probe sets.

Test [2] concerns MALT1 proteolytic cleavage of RelB and N4BP1. The test can be described thus: RelB and N4BP1 cleavage assay in Jurkat T cells. Particulars: 20 hours pretreatment, MG132, PMA/iono stimulation. The test is classed as cell-based.
The next test deals with IL-2 secretion. The test can be described thus: IL-2 secretion (ELISA). Format: cell-based, human. Particulars: dose-response. On the procedure: (§2) Expression of cytokines from cell culture supernatants was measured 24h after treatment with 0, 0.01, 0.03, 0.1, 0.3, 1, or 3 uM of compounds using the following ELISA kits according to the manufacturer's instructions: Human IL-2 ELISA (BioLegend Cat #431804), Human IL-6 ELISA (BioLegend Cat #430504), and Human IL-10 ELISA (BioLegend Cat #430604).
(In general: In an ELISA, binding on a coated surface is turned into a signal by an enzyme label.)

Test [3] deals with anti-CD3/CD28-induced phosphorylation of IKKα/β. The test can be described thus: Phosphorylation of IKKα/β in Jurkat T cells (Western blot). The test is classed as cell-based. Conditions: 20 hours pretreatment, anti-CD3/CD28 for 0-20 minutes. The method, then:
as §1
In general terms: A western blot detects proteins with antibodies after separation by electrophoresis.

In test [4] the test system is IL-6 and IL-10 secretion in OCI-Ly3 cells. The test can be described thus: IL-6 and IL-10 secretion by OCI-Ly3 cells (ELISA). Format: cell-based, human. The method, then: as §2

T1 sequence (P08588 whole entry): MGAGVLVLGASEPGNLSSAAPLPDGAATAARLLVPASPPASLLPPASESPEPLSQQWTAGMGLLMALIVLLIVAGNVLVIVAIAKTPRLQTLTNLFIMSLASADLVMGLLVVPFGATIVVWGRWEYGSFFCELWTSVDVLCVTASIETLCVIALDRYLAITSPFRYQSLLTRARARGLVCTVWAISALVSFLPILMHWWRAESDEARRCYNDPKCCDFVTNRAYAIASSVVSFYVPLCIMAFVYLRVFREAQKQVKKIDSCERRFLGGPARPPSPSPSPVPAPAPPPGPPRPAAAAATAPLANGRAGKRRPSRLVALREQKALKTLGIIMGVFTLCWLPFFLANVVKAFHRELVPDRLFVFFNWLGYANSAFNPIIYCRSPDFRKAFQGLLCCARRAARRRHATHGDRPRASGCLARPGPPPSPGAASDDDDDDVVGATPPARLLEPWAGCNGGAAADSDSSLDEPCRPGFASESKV

As to `O=S(=O)(NCc1ccc2c(c1)OCO2)c1ccc(Cc2ccc(S(=O)(=O)NCc3ccc4c(c3)OCO4)cc2)cc1` [M1i-124], half-maximal inhibition at ADRB1 (IC50) required 800 nM. This counts as sub-micromolar.
With `COc1ccc(CNS(=O)(=O)c2ccc(Cc3ccc(S(=O)(=O)NCc4ccc(OC)cc4)cc3)cc2)cc1` [M1i-124d1], the Proliferation entry in the test on TMD8 ABC-DLBCL cells was “inhibit the proliferation”. Besides, in test [1], the “Transcription of interleukin 2 (IL-2)” value is on record as “inhibit”. Further, in test [2], the “MALT1 proteolytic cleavage of N4BP1 (ratio cleaved/full-length)” value is on record as “inhibit” and the “MALT1 proteolytic cleavage of RelB (ratio cleaved/full-length)” value is “inhibit”. Besides, the IL-2 secretion entry with IL-2 secretion was “dose-dependent inhibition”. Also, the “Phosphorylation of IKKα/β (phospho-IKK/total IKK)” value in test [3] was “leads to inhibition”. Besides, in test [4], the IL-6 secretion result is “inhibit IL-6 and IL-10 secretion in a concentration-dependent manner”; the IL-10 secretion entry was “inhibit IL-6 and IL-10 secretion in a concentration-dependent manner”.

Values taken from patent US20240124410A1, “SMALL MOLECULES AND THEIR USE AS MALT1 INHIBITORS” (University of Pittsburgh - Of the Commonwealth System of …, priority 2021, published 2024).
